Assay results as given in patent US20120083471A1, “Novel Compounds, Pharmaceutical Compositions Containing Same, Methods of Use for Same, and Methods for Preparing Same” (priority 2008, published 2012).

How the values were obtained:
DIO mice [1] = experiment: Chronic 20 d FSG67 treatment of DIO mice, reversibility of weight loss; format: in vivo, mouse
Source text: DIO and lean mouse models. All animal experimentation was done in accordance with guidelines on animal care and use as established by the Johns Hopkins University School of Medicine IACUC. DIO C57BL6J male mice were obtained from Jackson Laboratory (Bar Harbor, ME) and fed a synthetic diet comprised of 60% calories from fat, 20% from carbohydrate, and 20% from protein (5.2 kcal/g) post-weaning through the experimental procedures (D12492i, Research Diets, Inc., New Brunswick, N.J.). For lean animal studies, twelve-week old C57BL6J male mice (Jackson Laboratory, Bar Harbor, Me.) were fed rodent chow comprised of 13% calories from fat, 58% from carbohydrate, and 29% from protein (4.1 kcal/g) (Prolab RMH 2500, PMI Nutrition International Inc., Brentwood, Mo.). Mice were maintained in 12 hr light-dark cycle at 25° C. for 1 week for acclimatization prior to treatment. In all studies, FSG67 (FASgen, Inc., Baltimore, Md.) was dissolved in RPMI 1640 (Invitrogen, Carlsbad, Calif.).
(§1) For acute studies, 6 DIO or lean mice were treated with a single dose of FSG67 (20 mg/kg, i.p.) approximately 3 hrs past lights-on. Animal weights and food consumption were measured 18 h after treatment. Following euthanization, the hypothalmuses were harvested to measure orexigenic and anorexigenic neuropeptide gene expression. In the chronic studies, DIO mice, 4-10 animals per group, were treated daily with FSG67 (5 mg/kg, i.p.) or with RMPI vehicle for the days indicated. Body weight and food intake were measured daily. In one study, a cohort of mice was pair-fed with amounts consumed by the FSG67-treated animals and mice were monitored with indirect calorimetry (Oxymax Equal Flow System®, Columbus Instruments, Columbus, Ohio). Measurements of VO2 (ml/kg/hr) and VCO2 (ml/kg/hr) were performed and recorded every 15 min. The respiratory exchange ratio (RER) was calculated by Oxymax software, version 5.9, and is defined as ratio of VCO2 to VO2 33. After completion of the treatment course, animals were euthanized by CO2 inhalation 4 hrs following the final dose of FSG67. Tissues were harvested immediately for RNA extraction; serum was collected and analyzed for glucose, cholesterol, and triglyceride measurements (Bioanalytics, Gaithersburg, Md.). Fresh liver tissue was snap frozen in liquid N2, sectioned, and stained with hematoxylin and Oil Red O to visualize triglyceride droplets.
The first chronic treatment experiment was designed to test if weight loss induced by FSG67 was reversible. Four DIO mice per group were treated with FSG67 or vehicle for 20 days. For the entire 32 d trial, weight and food consumption were recorded daily until the FSG67 treated animals regained their original weight. During FSG67 treatment (days 0-20), the mice lost 10.3±0.6% of their body mass while controls gained 4.0±0.5% (p<0.0001, 2-way ANOVA) (FIG. 12a). Average food consumption was reduced during FSG67 treatment (2.6±0.1 g/d, days 1-20) compared to vehicle controls (3.1±0.1 g) (p=0.0008, 2-way ANOVA) (FIG. 12b). Following cessation of treatment, food consumption increased in the FSG67 treatment group to an average of 3.5±0.1 g/d (days 21-32) representing a significant increase in food intake compared to vehicle controls 3.2±0.1 g/d (p=0.006, 2-way ANOVA). The FSG67 treated animals achieved their average pre-treatment weight 11 days following termination of treatment (FIG. 12a).

DIO mice [2] = experiment: Chronic 16 d FSG67 treatment of DIO mice with indirect calorimetry and pair-fed group; format: in vivo, mouse; details: 5 mg/kg ip daily
Method: as §1
In the second chronic treatment study, indirect calorimetry was utilized to study changes in metabolism during GPAT inhibition. DIO mice (8 per group) were treated with FSG67 (5 mg/kg, ip), or pair-fed to FSG67 treated animals. Indirect calorimetry was utilized to measure changes in oxygen consumption (VO2) and respiratory exchange ratio (RER) between pair-fed and treated animals. After 16 days of treatment, the FSG67 treated mice lost 9.5±0.6% of body mass, pair-fed lost 5.5±0.9%, while vehicle controls gained 3.5±1.3% (FIG. 12c). The weight loss in the FSG67 treated animals was significant compared to both vehicle controls and pair-fed animals (p<0.0001, 2-way ANOVA). […] RER was reduced in FSG67 treated mice (0.732±0.002) compared to pair-fed (0.782±0.006) (p<0.0001, 2-way ANOVA) (FIG. 12f) indicating increased use of fatty acids for fuel in the FSG67 treated animals. The combination of increased VO2 and reduced RER in the FSG67 treated animals are consistent with increased fatty acid oxidation and energy utilization which likely contribute to their reduced body mass compared to the pair-fed controls.

CCCCCCCCCS(=O)(=O)Nc1ccccc1C(=O)O [Compound 15g, 2-(Nonylsulfonamido)benzoic acid]
time to pre-treatment weight following termination of treatment (DIO mice [1]): 11 days | body mass lost during treatment (DIO mice [1]; 5 mg/kg ip daily, 20 d): 10.3±0.6% | food consumption during treatment (DIO mice [1]; 5 mg/kg ip daily, days 1-20): 2.6 ± 0.1 g/day | food consumption following cessation of treatment (DIO mice [1]; days 21-32): 3.5 ± 0.1 g/day | day of return to original weight (DIO mice [1]; treatment terminated at day 20): 32 days | average daily food consumption (DIO mice [2]; 16 days): 2.0 ± 0.1 g/day | body mass lost (DIO mice [2]; 16 days): 9.5±0.6% | reduction of average daily food consumption vs vehicle (DIO mice [2]; 16 days): 33% | average RER (DIO mice [2]; indirect calorimetry): 0.732±0.002 | average VO2, % of pre-treatment value (DIO mice [2]; indirect calorimetry): 106.5±1.1%
